{"source": "ChEMBL document CHEMBL3390836", "about": "“Mannich- and LedererManasse-based analogues of the natural product S-(+)-curcuphenol as cancer proliferation and migration inhibitors” (Medchemcomm, 2012)", "format_in_all_cases": "functional", "key": {"NCI-H226 [1]": {"tested_on": "NCI-H226", "test": "Cytotoxicity against human NCI-H226 cells assessed as cell growth at 10^-4 M after 48 hrs by SRB assay relative to control", "conditions": "NCI-H226, 48 h, read-out: Activity"}, "COLO 205 [2]": {"tested_on": "COLO 205", "test": "Cytotoxicity against human COLO205 cells assessed as cell growth at 10^-4 M after 48 hrs by SRB assay relative to control", "conditions": "COLO 205, 48 h, read-out: Activity"}, "SNB-75 [3]": {"tested_on": "SNB-75", "test": "Cytotoxicity against human SNB75 cells after 48 hrs by SRB assay", "conditions": "SNB-75, 48 h"}, "SK-MEL-2 [4]": {"tested_on": "SK-MEL-2", "test": "Cytotoxicity against human SK-MEL-2 cells after 48 hrs by SRB assay", "conditions": "SK-MEL-2, 48 h"}, "[5]": {"test": "Cytotoxicity against human UACC62 cells after 48 hrs by SRB assay", "conditions": "UACC-62, 48 h"}, "[6]": {"test": "Cytotoxicity against human NCI-ADR-RES cells after 48 hrs by SRB assay"}, "ACHN": {"tested_on": "ACHN", "test": "Cytotoxicity against human ACHN cells after 48 hrs by SRB assay"}, "[7]": {"test": "Cytotoxicity against human HCT15 cells assessed as cell growth at 10^-8 M after 48 hrs by SRB assay relative to control", "conditions": "HCT-15, 48 h, read-out: Activity"}, "HT-29": {"tested_on": "HT-29", "test": "Cytotoxicity against human HT-29 cells assessed as cell growth at 10^-8 M after 48 hrs by SRB assay relative to control", "conditions": "HT-29, 48 h, read-out: Activity"}, "[8]": {"test": "Cytotoxicity against human UACC62 cells assessed as cell growth at 10^-4 M after 48 hrs by SRB assay relative to control", "conditions": "UACC-62, 48 h, read-out: Activity"}, "[9]": {"test": "Cytotoxicity against human NCI-ADR-RES cells assessed as cell growth at 10^-4 M after 48 hrs by SRB assay relative to control", "conditions": "read-out: Activity"}, "A498": {"tested_on": "A498", "test": "Cytotoxicity against human A498 cells assessed as cell growth at 10^-4 M after 48 hrs by SRB assay relative to control", "conditions": "A498, 48 h, read-out: Activity"}, "MCF7": {"tested_on": "MCF7", "test": "Cytotoxicity against human MCF7 cells assessed as cell growth at 10^-4 M after 48 hrs by SRB assay relative to control", "conditions": "MCF7, 48 h, read-out: Activity"}, "MDA-MB-231": {"tested_on": "MDA-MB-231", "test": "Cytotoxicity against human MDA-MB-231 cells assessed as cell growth at 10^-4 M after 48 hrs by SRB assay relative to control", "conditions": "MDA-MB-231, 48 h, read-out: Activity"}, "[10]": {"test": "Cytotoxicity against human Hs 578T cells assessed as cell growth at 10^-4 M after 48 hrs by SRB assay relative to control", "conditions": "read-out: Activity"}, "786-0": {"tested_on": "786-0", "test": "Cytotoxicity against human 786-0 cells assessed as cell growth at 10^-8 M after 48 hrs by SRB assay relative to control", "conditions": "786-0, 48 h, read-out: Activity"}, "CAKI-1 [11]": {"tested_on": "CAKI-1", "test": "Cytotoxicity against human Caki1 cells assessed as cell growth at 10^-8 M after 48 hrs by SRB assay relative to control", "conditions": "CAKI-1, 48 h, read-out: Activity"}, "[12]": {"test": "Cytotoxicity against human UO31 cells assessed as cell growth at 10^-8 M after 48 hrs by SRB assay relative to control", "conditions": "UO-31, 48 h, read-out: Activity"}, "[13]": {"test": "Cytotoxicity against human EKVX cells assessed as cell growth at 10^-7 M after 48 hrs by SRB assay relative to control", "conditions": "read-out: Activity"}, "NCI-H322M": {"tested_on": "NCI-H322M", "test": "Cytotoxicity against human NCI-H322M cells assessed as cell growth at 10^-7 M after 48 hrs by SRB assay relative to control", "conditions": "read-out: Activity"}, "NCI-H460 [14]": {"tested_on": "NCI-H460", "test": "Cytotoxicity against human NCI-H460 cells assessed as cell growth at 10^-7 M after 48 hrs by SRB assay relative to control", "conditions": "NCI-H460, 48 h, read-out: Activity"}, "SNB-75 [15]": {"tested_on": "SNB-75", "test": "Cytotoxicity against human SNB75 cells assessed as cell growth at 10^-7 M after 48 hrs by SRB assay relative to control", "conditions": "SNB-75, 48 h, read-out: Activity"}, "U-251": {"tested_on": "U-251", "test": "Cytotoxicity against human U251 cells assessed as cell growth at 10^-7 M after 48 hrs by SRB assay relative to control", "conditions": "U-251, 48 h, read-out: Activity"}, "[16]": {"test": "Cytotoxicity against human HCT15 cells after 48 hrs by SRB assay", "conditions": "HCT-15, 48 h"}, "MDA-MB-468": {"tested_on": "MDA-MB-468", "test": "Cytotoxicity against human MDA-MB-468 cells assessed as cell growth at 10^-7 M after 48 hrs by SRB assay relative to control", "conditions": "MDA-MB-468, 48 h, read-out: Activity"}, "MOLT-4": {"tested_on": "MOLT-4", "test": "Cytotoxicity against human MOLT4 cells assessed as cell growth at 10^-6 M after 48 hrs by SRB assay relative to control", "conditions": "MOLT-4, 48 h, read-out: Activity"}, "NCI-H226 [17]": {"tested_on": "NCI-H226", "test": "Cytotoxicity against human NCI-H226 cells assessed as cell growth at 10^-6 M after 48 hrs by SRB assay relative to control", "conditions": "NCI-H226, 48 h, read-out: Activity"}, "NCI-H460 [18]": {"tested_on": "NCI-H460", "test": "Cytotoxicity against human NCI-H460 cells assessed as cell growth at 10^-6 M after 48 hrs by SRB assay relative to control", "conditions": "NCI-H460, 48 h, read-out: Activity"}, "COLO 205 [19]": {"tested_on": "COLO 205", "test": "Cytotoxicity against human COLO205 cells assessed as cell growth at 10^-6 M after 48 hrs by SRB assay relative to control", "conditions": "COLO 205, 48 h, read-out: Activity"}, "[20]": {"test": "Cytotoxicity against human HCT116 cells assessed as cell growth at 10^-6 M after 48 hrs by SRB assay relative to control", "conditions": "HCT-116, 48 h, read-out: Activity"}, "SF-539": {"tested_on": "SF-539", "test": "Cytotoxicity against human SF539 cells assessed as cell growth at 10^-6 M after 48 hrs by SRB assay relative to control", "conditions": "SF-539, 48 h, read-out: Activity"}, "SK-MEL-2 [21]": {"tested_on": "SK-MEL-2", "test": "Cytotoxicity against human SK-MEL-2 cells assessed as cell growth at 10^-6 M after 48 hrs by SRB assay relative to control", "conditions": "SK-MEL-2, 48 h, read-out: Activity"}, "[22]": {"test": "Cytotoxicity against human UACC62 cells assessed as cell growth at 10^-6 M after 48 hrs by SRB assay relative to control", "conditions": "UACC-62, 48 h, read-out: Activity"}, "[23]": {"test": "Cytotoxicity against human OVCAR3 cells assessed as cell growth at 10^-6 M after 48 hrs by SRB assay relative to control", "conditions": "OVCAR-3, 48 h, read-out: Activity"}, "[24]": {"test": "Cytotoxicity against human SKOV3 cells assessed as cell growth at 10^-6 M after 48 hrs by SRB assay relative to control", "conditions": "SK-OV-3, 48 h, read-out: Activity"}, "CAKI-1 [25]": {"tested_on": "CAKI-1", "test": "Cytotoxicity against human Caki1 cells assessed as cell growth at 10^-6 M after 48 hrs by SRB assay relative to control", "conditions": "CAKI-1, 48 h, read-out: Activity"}}}
{"compound": "COc1ccc(CCN2COc3c([C@@H](C)CCC=C(C)C)ccc(C)c3C2)cc1OC", "values": [{"measurement": "growth at 100 µM", "setting": "NCI-H226 [1]", "result": -93, "unit": "%"}, {"measurement": "growth at 100 µM", "setting": "COLO 205 [2]", "result": -100, "unit": "%"}, {"measurement": "GI50", "setting": "SNB-75 [3]", "result": 12.5, "unit": "µM"}, {"measurement": "LC50", "setting": "SNB-75 [3]", "result": "> 100", "unit": "µM"}, {"measurement": "TGI", "setting": "SNB-75 [3]", "result": 35.4, "unit": "µM"}, {"measurement": "GI50", "setting": "SK-MEL-2 [4]", "result": 1.88, "unit": "µM"}, {"measurement": "LC50", "setting": "SK-MEL-2 [4]", "result": 7.79, "unit": "µM"}, {"measurement": "TGI", "setting": "SK-MEL-2 [4]", "result": 3.82, "unit": "µM"}, {"measurement": "GI50", "setting": "[5]", "result": 3.48, "unit": "µM"}, {"measurement": "LC50 (concentration killing 50% of cells)", "setting": "[5]", "result": 38.7, "unit": "µM"}, {"measurement": "TGI", "setting": "[5]", "result": 14.6, "unit": "µM"}, {"measurement": "GI50", "setting": "[6]", "result": 2.96, "unit": "µM"}, {"measurement": "LC50 (lethal concentration, 50% cell kill)", "setting": "[6]", "result": 35.2, "unit": "µM"}, {"measurement": "TGI", "setting": "[6]", "result": 9.51, "unit": "µM"}, {"measurement": "GI50", "setting": "ACHN", "result": 6.11, "unit": "µM"}, {"measurement": "LC50 (concentration killing 50% of cells)", "setting": "ACHN", "result": 48.1, "unit": "µM"}, {"measurement": "TGI", "setting": "ACHN", "result": 20.2, "unit": "µM"}, {"measurement": "growth at 0.01 µM", "setting": "[7]", "result": 85, "unit": "%"}, {"measurement": "growth at 0.01 µM", "setting": "HT-29", "result": 97, "unit": "%"}, {"measurement": "growth at 100 µM", "setting": "[8]", "result": -99, "unit": "%"}, {"measurement": "growth at 100 µM", "setting": "[9]", "result": -90, "unit": "%"}, {"measurement": "growth at 100 µM", "setting": "A498", "result": -93, "unit": "%"}, {"measurement": "growth at 100 µM", "setting": "MCF7", "result": -92, "unit": "%"}, {"measurement": "growth at 100 µM", "setting": "MDA-MB-231", "result": -91, "unit": "%"}, {"measurement": "growth at 100 µM", "setting": "[10]", "result": -66, "unit": "%"}, {"measurement": "growth at 0.01 µM", "setting": "786-0", "result": 101, "unit": "%"}, {"measurement": "growth at 0.01 µM", "setting": "CAKI-1 [11]", "result": 94, "unit": "%"}, {"measurement": "growth at 0.01 µM", "setting": "[12]", "result": 86, "unit": "%"}, {"measurement": "growth at 0.1 µM", "setting": "[13]", "result": 91, "unit": "%"}, {"measurement": "growth at 0.1 µM", "setting": "NCI-H322M", "result": 95, "unit": "%"}, {"measurement": "growth at 0.1 µM", "setting": "NCI-H460 [14]", "result": 100, "unit": "%"}, {"measurement": "growth at 0.1 µM", "setting": "SNB-75 [15]", "result": 86, "unit": "%"}, {"measurement": "growth at 0.1 µM", "setting": "U-251", "result": 88, "unit": "%"}, {"measurement": "GI50", "setting": "[16]", "result": 2.84, "unit": "µM"}, {"measurement": "TGI", "setting": "[16]", "result": 10.4, "unit": "µM"}, {"measurement": "CC50", "setting": "[16]; read-out: LC50 (the source's name)", "result": 38.2, "unit": "µM"}, {"measurement": "growth at 0.1 µM", "setting": "MDA-MB-468", "result": 60, "unit": "%"}, {"measurement": "growth at 1 µM", "setting": "MOLT-4", "result": 85, "unit": "%"}, {"measurement": "growth at 1 µM", "setting": "NCI-H226 [17]", "result": 94, "unit": "%"}, {"measurement": "growth at 1 µM", "setting": "NCI-H460 [18]", "result": 99, "unit": "%"}, {"measurement": "growth at 1 µM", "setting": "COLO 205 [19]", "result": 100, "unit": "%"}, {"measurement": "growth at 1 µM", "setting": "[20]", "result": 97, "unit": "%"}, {"measurement": "growth at 1 µM", "setting": "SF-539", "result": 96, "unit": "%"}, {"measurement": "growth at 1 µM", "setting": "SK-MEL-2 [21]", "result": 94, "unit": "%"}, {"measurement": "growth at 1 µM", "setting": "[22]", "result": 86, "unit": "%"}, {"measurement": "growth at 1 µM", "setting": "[23]", "result": 91, "unit": "%"}, {"measurement": "growth at 1 µM", "setting": "[24]", "result": 102, "unit": "%"}, {"measurement": "growth at 1 µM", "setting": "CAKI-1 [25]", "result": 83, "unit": "%"}]}
